# Reference: PMC7497253, “Structure‐Based Macrocyclization of Substrate Analogue NS2B‐NS3 Protease Inhibitors of Zika, West Nile and Dengue viruses” (Chemmedchem, 2020)
# Read-outs that look alike come from different tables or passages of the source. Starred links: 1 amine or outer side, 2 acyl side, 3 side chain; linkers in the order of their positions; H or OH if unused. Positions of bridges follow the written chain, without caps; N, C: chain ends. Non-standard residues stand in square brackets, D forms with d. Residues, ends and D or L forms follow the SMILES beside them. dεLys(Nα-amidino) = N=C(N)N[C@H](CCCCN[*:1])C(=O)[*:2]; NHCH2(1,3-C6H4)CH2CO = O=C(Cc1cccc(CN[*:1])c1)[*:2]; βAla = NCCC(=O)O
# Assays:
# Assay type in all cases: biochemical
# [1] = biological target: T1, bZiPro (unlinked binary Zika virus NS2B-NS3 protease) (Zika virus, UniProt A0A024B7W1); assay: Enzyme kinetics with bZiPro, fluorogenic substrate Phac-Leu-Lys-Lys-Arg-AMC
# T1 construct: The viral protease consists of the N‐terminal third of the nonstructural protein NS3; the NS2B construct ends at Glu96; His6 (cleaved yes); made in house
# Protocol: (§1) Enzyme kinetics. Measurements with bZiPro15 and the covalent WNV NS2B‐NS3 construct^10 were performed at room temperature in black 96 well plates using a Fluoroskan Ascent® plate reader (Thermo Fisher Scientific, Vantaa, Finland) with λ ex at 355 nm and λ em at 460 nm. Each well contained 125 μL inhibitor dissolved in buffer (for bZiPro: 20 mM Tris×HCl pH 8.5, 2 mM DTT, 10 w/v glycerol and 0.01 w/v Triton X‐100;18 for WNV protease: 100 mM Tris×HCl pH 8.5, containing 32 w/v glycerol and 0.01 w/v Triton X‐10012) and 50 μL substrate Phac‐Leu‐Lys‐Lys‐Arg‐AMC12 (40 μM for bZiPro (10 μM in assay, K M=1.4 μM) and 400 μM for the WNV protease (100 μM in assay, K M=53 μM)). The measurements were started by addition of 25 μL enzyme solution (16 nM for bZiPro (2.0 nM in assay), and 64 nM for the WNV protease (8.0 nM in assay)). Data points were collected each 15 s over a period of 10 min using eight different inhibitor concentrations. […] The K i values and their standard deviation were obtained from at least three independent measurements.(1) vi=Vmax×[S]/KM1+[I]/Ki+[S]
# The constants K M and V max were obtained from independent measurements with six different substrate concentrations in absence of inhibitor. For inhibitor 10 with bZiPro, additional measurements at three substrate concentrations (10, 5, and 2.5 μM in assay) were performed to obtain the Dixon plot shown in Figure 4.
# [2] = biological target: T2, WNV NS2B-NS3 protease (WNV-Pro) (West Nile virus, UniProt P06935); assay: Enzyme kinetics with the covalent WNV NS2B-NS3 construct, substrate Phac-Leu-Lys-Lys-Arg-AMC
# T2 construct: NS3 has to form a complex with its cofactor NS2B to achieve proteolytic activity; The viral protease consists of the N‐terminal third of the nonstructural protein NS3
# Protocol: as §1
# [3] = biological target: T3, bD4Pro (unlinked binary dengue-4 virus NS2B-NS3 protease) (Dengue virus type 4, UniProt Q2YHF2); assay: Enzyme kinetics with bD4Pro, substrate Benzoyl-Nle-Lys-Arg-Arg-AMC
# T3 construct: The viral protease consists of the N‐terminal third of the nonstructural protein NS3; NS3 has to form a complex with its cofactor NS2B to achieve proteolytic activity; His6 (cleaved yes); made in house
# T3 sequence (Q2YHF2 1475-1652 limits assumed): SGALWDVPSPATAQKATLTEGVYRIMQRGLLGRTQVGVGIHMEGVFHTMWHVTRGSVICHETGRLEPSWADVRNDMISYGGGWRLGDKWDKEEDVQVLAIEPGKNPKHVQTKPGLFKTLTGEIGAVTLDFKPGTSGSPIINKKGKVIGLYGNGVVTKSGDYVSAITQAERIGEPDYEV
# T3 sequence (Q2YHF2 1397-1436 limits assumed): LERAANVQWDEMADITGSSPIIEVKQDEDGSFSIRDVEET
# Protocol: Measurements with the dengue 4 virus protease construct (bD4Pro; expressed and purified by a similar methodology as described for bZiPro15 with slight modification of using Tobacco Etch Virus (TEV) protease instead of thrombin for His6‐tag cleavage) were performed in a Cytation 3 Mulitmode plate reader with λ ex at 380 nm and λ em at 460 nm. Assays were carried out as triplicate at 37 °C. Before measurement, the protease (final assay concentration 3 nM) was preincubated with varying concentrations of inhibitors in assay buffer (20 mM Tris pH 8.5, 10 % glycerol, 0.01 % Triton X‐100) for 1 h at room temperature in Corning black clear bottom 96‐well plates. The reaction was started by addition of the substrate Benzoyl‐Nle‐Lys‐Arg‐Arg‐AMC (final assay concentration 50 μM, K M=48.4 μM). Fluorescent readings were recorded at 1‐minute intervals over 10 minutes. The steady‐state rates v i in presence of inhibitor were calculated from the slopes of the progress curves using Graph Pad Prism. The v i values were fitted to Equation (2) as function of the inhibitor concentration [I] providing the IC50 values, where v 0 is the rate in absence of inhibitor and s a slope factor. The obtained IC50 values were finally converted into K i values by the Cheng‐Prusoff Equation (2).(2) vi=v0/1+I/IC50^s (3) Ki=IC50/1+S/KM
# [4] = mean±SD of at least three independent measurements, substrate 10 μM in assay, room temperature, pH 8.5, read-out: K i bZiPro
# [5] = mean±SD of at least three independent measurements, substrate 100 μM in assay, room temperature, pH 8.5, read-out: K i WNV-Pro
# [6] = mean±SD of at least three independent measurements, 37 °C, IC50 converted into K i by Cheng-Prusoff, read-out: K i bD4Pro
# [7] = K i bZiPro, mean±SD of at least three independent measurements, substrate 10 μM in assay, room temperature, pH 8.5
# [8] = K i against bZiPro / ZIKV protease, value given in running text
# T1 sequence (A0A024B7W1 1503-1680 limits assumed): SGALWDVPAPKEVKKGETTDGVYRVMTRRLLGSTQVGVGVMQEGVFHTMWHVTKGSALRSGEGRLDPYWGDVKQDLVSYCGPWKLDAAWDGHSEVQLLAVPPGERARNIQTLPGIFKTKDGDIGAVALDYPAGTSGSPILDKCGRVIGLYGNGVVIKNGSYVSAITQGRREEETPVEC
# T1 sequence (A0A024B7W1 1425-1464 limits assumed): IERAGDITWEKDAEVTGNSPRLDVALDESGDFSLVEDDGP
# T2 sequence (P06935 1424-1463): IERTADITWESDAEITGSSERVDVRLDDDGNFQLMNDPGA
# T2 sequence (P06935 1502-1679): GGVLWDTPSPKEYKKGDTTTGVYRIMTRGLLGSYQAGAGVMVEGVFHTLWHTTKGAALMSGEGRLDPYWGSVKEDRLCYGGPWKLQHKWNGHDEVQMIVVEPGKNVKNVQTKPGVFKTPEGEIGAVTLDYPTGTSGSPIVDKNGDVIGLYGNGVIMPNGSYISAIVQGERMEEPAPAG
SMILES,"Ki [1, 4] [nM]","Ki [2, 5] [nM]","Ki [3, 6] [nM]","Ki [1, 7] [nM]",Ki [2] [nM],Ki [3] [nM],"Ki [1, 8] [nM]"
N=C(N)N[C@@H]1CCCCNC(=O)[C@H](CCCCN)NC(=O)[C@H](CCCCN)NC(=O)CNC(=O)CNC(=O)CCNC1=O [Inhibitor 28] (cyclo([βAla]GGKK[dεLys(Nα-amidino)])),12.8 ± 0.5,974 ± 134,2720 ± 190,,,,
C[C@@H]1NC(=O)[C@H](NC(=N)N)CCCCNC(=O)[C@H](CCCCN)NC(=O)[C@H](CCCCN)NC(=O)Cc2cccc(c2)CNC1=O [Inhibitor 15],,,,18.2 ± 5.1,1390 ± 320,3600 ± 380,
NCCCC[C@@H]1NC(=O)Cc2ccc(cc2)CNC(=O)CCCNC(=O)[C@H](N)CCCCNC(=O)[C@H](CCCCN)NC1=O [Inhibitor 6],24700 ± 7200,68100 ± 5000,94500 ± 11600,,,,
N=C(N)N[C@@H]1CCCNC(=O)[C@H](CCCCN)NC(=O)[C@H](CCCCN)NC(=O)Cc2ccc(cc2)CNC(=O)CCCNC1=O [Inhibitor 5],,,,3610 ± 1330,22000 ± 4000,60500 ± 5700,
CC(=O)NCc1cccc(CC(=O)N[C@@H](CCCCN)C(=O)N[C@@H](CCCCN)C(=O)NCCCCCNC(=N)N)c1 [Inhibitor 32],,,,88.2 ± 3.8,4940 ± 530,18100 ± 1200,
"N=C(N)N[C@H]1CC[C@H](CNC(=O)[C@H](CCCCN)NC(=O)[C@H](CCCCN)NC(=O)Cc2ccc(Cl)c(Cl)c2)CC1 [Inhibitor 1, 3,4‐dichloro‐Phac‐Lys‐Lys‐GCMA, reference compound]",,,,,,,14
CC(=O)NCc1cccc(CC(=O)N[C@@H](CCCCN)C(=O)N[C@@H](CCCCN)C(=O)NCCCC[C@@H](NC(=N)N)C(N)=O)c1 [Inhibitor 31],,,,9.48 ± 0.61,1480 ± 100,1210 ± 90,
"NCCCC[C@@H]1NC(=O)Cc2cccc(c2)CNC(=O)CNC(=O)[C@H](N)CCCCNC(=O)[C@H](CCCCN)NC1=O [Inhibitor 20] (H-[dK]G[NHCH2(1,3-C6H4)CH2CO]KK; lactam 1-C)",,,,23000,99000,282000,
N=C(N)N[C@@H]1CCCCNC(=O)[C@H](CCCCN)NC(=O)[C@H](CCCCN)NC(=O)Cc2cccc(c2)CNC(=O)CCCNC1=O [Inhibitor 8],,,,4.33 ± 0.35,702 ± 83,286 ± 9,
CC(C)[C@H]1NC(=O)[C@H](NC(=N)N)CCCCNC(=O)[C@H](CCCCN)NC(=O)[C@H](CCCCN)NC(=O)Cc2cccc(c2)CNC1=O [Inhibitor 18],,,,7.74 ± 0.66,439 ± 28,486 ± 27,
NCCCC[C@@H]1NC(=O)Cc2ccc(cc2)CNC(=O)CCCNC(=O)[C@H](N)CCCNC(=O)[C@H](CCCCN)NC1=O [Inhibitor 7],13200 ± 1700,31700 ± 3600,30600 ± 3900,,,,
N=C(N)N[C@@H]1CCCCNC(=O)[C@H](CCCCN)NC(=O)[C@H](CCCCN)NC(=O)CCCNC(=O)CNC1=O [Inhibitor 22],,,,124 ± 8,6700 ± 520,6090 ± 470,
N=C(N)N[C@@H]1CCCCNC(=O)[C@H](CCCCN)NC(=O)[C@H](CCCCN)NC(=O)Cc2cccc(c2)CNC(=O)CCNC1=O [Inhibitor 9],,,,3.88 ± 0.81,374 ± 44,182 ± 5,
N=C(N)N[C@@H]1CCCCNC(=O)[C@H](CCCCN)NC(=O)[C@H](CCCCN)NC(=O)Cc2cccc(c2)NC(=O)CCNC1=O [Inhibitor 13],,,,80.2 ± 9.7,4280 ± 310,7960 ± 550,80
